For orientation: GI50 means the concentration that inhibits growth by half. Low values mean more potent growth inhibition, high ones less potent growth inhibition.

In one assay the target is VEGFR2 (Homo sapiens, UniProt P35968). Kind of assay: HTRF method for testing the inhibitory activity of compounds against VEGFR2. In kind it is biochemical. To be noted: IC50 by nonlinear regression, read-out: VEGFR2 kinase activity. Put shortly:
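HTRF kinase assay with 10-point, 1:3 compound dilutions prepared in DMSO from 1 mM. The reaction was incubated 40 min at room temperature. IC50 came from nonlinear regression (variable slope) of inhibition against log concentration.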

A further assay addresses RET (Homo sapiens, UniProt P07949). Nature of the assay: HTRF method for testing the inhibitory activity of compounds against RET. It is filed as biochemical. To be noted: IC50 by nonlinear regression, read-out: RET kinase activity. A digest of the protocol: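 Compounds tested at 10 concentrations in 1:3 series, duplicate wells, 0.5% DMSO final; reaction incubated 30 min at room temperature. IC50 obtained by nonlinear regression (variable-slope dose response) of inhibition against log compound concentration.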
On the technique in general: TR-FRET usually uses a lanthanide donor and a delayed reading to cut background.

The target of a further assay is T1, Ba/F3-KIF5B-RET cell (Homo sapiens, UniProt P07949).
T1 construct: fused on or other part: P33176 (Kinesin-1 heavy chain)
Kind of assay: CellTiter-Glo luminescence assay for inhibitory activity against Ba/F3-KIF5B-RET cell. In kind it is cell-based. To be noted: Ba/F3-KIF5B-RET cells, 72 h. A digest of the protocol:
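Ba/F3 cells stably expressing human KIF5B-RET (puromycin-selected) were treated with compounds in a 10-point, 1:3 dilution series from a 2 mM DMSO intermediate. Viability by CellTiter-Glo luminescence; IC50 fitted with a four-parameter logistic equation.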
(In general: ATP-based viability assays read luminescence as a measure of living cells.)

T1 sequence (P07949 whole entry, change not shown, the tested form may be a part): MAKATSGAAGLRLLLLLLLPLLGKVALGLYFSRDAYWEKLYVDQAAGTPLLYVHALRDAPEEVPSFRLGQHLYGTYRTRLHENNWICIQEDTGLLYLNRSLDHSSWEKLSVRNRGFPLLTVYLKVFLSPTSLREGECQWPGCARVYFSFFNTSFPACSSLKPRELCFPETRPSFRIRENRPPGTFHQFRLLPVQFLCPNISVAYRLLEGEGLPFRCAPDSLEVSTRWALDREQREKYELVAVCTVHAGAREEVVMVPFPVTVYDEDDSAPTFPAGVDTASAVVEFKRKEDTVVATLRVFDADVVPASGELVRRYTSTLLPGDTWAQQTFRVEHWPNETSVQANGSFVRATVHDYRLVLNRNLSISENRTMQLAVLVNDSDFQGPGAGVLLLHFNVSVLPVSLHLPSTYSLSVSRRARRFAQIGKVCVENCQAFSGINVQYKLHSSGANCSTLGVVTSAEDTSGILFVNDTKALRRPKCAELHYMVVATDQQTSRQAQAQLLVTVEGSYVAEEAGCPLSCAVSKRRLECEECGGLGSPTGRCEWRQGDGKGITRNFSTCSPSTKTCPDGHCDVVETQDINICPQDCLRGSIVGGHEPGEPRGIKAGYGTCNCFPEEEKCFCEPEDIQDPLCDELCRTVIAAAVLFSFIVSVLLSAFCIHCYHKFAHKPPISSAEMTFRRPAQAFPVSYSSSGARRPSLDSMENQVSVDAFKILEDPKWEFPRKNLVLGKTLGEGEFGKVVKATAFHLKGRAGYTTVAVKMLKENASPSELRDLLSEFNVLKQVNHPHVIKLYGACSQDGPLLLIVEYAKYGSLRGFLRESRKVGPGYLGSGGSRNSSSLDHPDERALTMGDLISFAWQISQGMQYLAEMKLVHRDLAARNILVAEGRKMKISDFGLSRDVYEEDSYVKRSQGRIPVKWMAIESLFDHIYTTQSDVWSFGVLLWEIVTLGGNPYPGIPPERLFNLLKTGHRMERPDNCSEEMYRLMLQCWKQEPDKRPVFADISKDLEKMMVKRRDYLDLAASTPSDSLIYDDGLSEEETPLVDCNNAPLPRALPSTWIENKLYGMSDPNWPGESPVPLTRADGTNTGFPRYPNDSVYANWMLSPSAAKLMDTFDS
Sequence of RET (P07949 29-1114): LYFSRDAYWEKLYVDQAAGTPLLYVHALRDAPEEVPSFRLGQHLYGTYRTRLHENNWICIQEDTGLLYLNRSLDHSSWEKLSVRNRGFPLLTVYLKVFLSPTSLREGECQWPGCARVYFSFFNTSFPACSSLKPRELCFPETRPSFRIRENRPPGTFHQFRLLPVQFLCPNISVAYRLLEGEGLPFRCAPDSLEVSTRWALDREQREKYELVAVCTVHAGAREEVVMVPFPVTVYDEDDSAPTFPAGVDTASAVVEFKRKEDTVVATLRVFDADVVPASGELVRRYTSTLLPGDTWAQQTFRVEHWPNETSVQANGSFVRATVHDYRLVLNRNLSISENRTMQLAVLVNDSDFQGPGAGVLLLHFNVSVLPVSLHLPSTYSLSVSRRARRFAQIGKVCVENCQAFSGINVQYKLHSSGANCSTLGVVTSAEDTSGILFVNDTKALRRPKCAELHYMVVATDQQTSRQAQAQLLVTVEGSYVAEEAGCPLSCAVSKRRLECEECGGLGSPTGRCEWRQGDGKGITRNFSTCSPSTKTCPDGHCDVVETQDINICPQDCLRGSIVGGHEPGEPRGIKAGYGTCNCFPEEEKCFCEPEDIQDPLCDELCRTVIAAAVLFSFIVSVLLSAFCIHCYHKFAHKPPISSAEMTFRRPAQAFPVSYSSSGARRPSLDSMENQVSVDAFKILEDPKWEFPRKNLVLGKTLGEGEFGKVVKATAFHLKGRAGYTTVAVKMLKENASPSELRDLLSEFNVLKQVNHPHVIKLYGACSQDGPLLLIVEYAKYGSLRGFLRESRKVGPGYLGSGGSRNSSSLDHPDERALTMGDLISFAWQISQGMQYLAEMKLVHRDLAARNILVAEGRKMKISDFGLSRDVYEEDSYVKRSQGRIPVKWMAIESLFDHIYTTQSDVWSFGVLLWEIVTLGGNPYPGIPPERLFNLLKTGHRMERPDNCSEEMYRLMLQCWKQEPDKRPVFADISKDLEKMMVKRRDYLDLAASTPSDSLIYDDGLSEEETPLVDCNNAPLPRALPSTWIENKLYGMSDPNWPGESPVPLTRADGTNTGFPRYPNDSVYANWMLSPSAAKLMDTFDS
Sequence of VEGFR2 (P35968 20-1356, species assumed): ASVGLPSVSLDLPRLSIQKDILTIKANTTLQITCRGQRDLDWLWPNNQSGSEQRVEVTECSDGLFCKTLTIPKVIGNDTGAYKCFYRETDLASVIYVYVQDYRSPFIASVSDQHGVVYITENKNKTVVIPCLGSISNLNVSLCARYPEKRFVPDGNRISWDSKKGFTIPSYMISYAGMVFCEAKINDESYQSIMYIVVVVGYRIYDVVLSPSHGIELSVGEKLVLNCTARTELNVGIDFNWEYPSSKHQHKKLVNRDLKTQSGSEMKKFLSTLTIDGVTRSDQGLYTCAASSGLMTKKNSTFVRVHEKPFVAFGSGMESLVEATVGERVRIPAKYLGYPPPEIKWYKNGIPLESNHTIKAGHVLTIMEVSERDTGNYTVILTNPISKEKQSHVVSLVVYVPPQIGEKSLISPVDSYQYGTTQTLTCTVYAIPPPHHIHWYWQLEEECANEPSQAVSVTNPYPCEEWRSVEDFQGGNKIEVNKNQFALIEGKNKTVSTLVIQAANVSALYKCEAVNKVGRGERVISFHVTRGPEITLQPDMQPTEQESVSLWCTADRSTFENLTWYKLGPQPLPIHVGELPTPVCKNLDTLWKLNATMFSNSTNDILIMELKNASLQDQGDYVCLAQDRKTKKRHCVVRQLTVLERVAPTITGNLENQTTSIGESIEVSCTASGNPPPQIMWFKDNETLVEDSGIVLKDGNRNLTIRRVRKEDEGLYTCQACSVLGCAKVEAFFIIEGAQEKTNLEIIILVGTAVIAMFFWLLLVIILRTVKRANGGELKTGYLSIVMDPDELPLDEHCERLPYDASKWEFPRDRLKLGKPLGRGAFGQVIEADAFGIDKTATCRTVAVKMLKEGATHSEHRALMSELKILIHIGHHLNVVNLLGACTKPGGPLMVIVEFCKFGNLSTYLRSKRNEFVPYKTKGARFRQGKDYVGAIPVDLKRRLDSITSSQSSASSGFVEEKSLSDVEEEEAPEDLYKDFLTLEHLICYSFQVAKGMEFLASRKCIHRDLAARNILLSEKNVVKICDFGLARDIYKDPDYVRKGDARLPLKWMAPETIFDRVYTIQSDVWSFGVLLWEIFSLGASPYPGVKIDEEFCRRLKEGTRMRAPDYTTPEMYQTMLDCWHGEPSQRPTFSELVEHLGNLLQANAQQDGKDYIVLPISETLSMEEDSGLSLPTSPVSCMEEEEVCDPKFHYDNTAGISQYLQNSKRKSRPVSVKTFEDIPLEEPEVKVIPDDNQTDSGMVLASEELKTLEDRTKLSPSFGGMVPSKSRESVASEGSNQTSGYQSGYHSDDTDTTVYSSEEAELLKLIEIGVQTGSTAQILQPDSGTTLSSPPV

For the compound `C[C@@H](c1ccc(-n2cccn2)nc1)N(C)c1ccc(-c2cc(OCC(C)(C)O)cn3ncc(C#N)c23)cn1` [Compound 58, (S)-4-(6-((1-(6-(1H-pyrazol-1-yl)pyridin-3-yl)ethyl)(methyl)amino)pyridin-3-yl)-6-(2-hydroxy-2-methylpropoxy)pyrazolo[1,5-a]pyridine-3-carbonitrile], the IC50 at VEGFR2 came to 26.5 nM; at RET, 0.5 nM. The compound also showed a GI50 at Ba/F3-KIF5B-RET cell of 42.8 nM.
With `CCCNc1cc(-c2ccc(N(C)[C@@H](C)c3ccc(-n4cc(F)cn4)nc3)nc2)c2c(C#N)cnn2c1` [Compound 60], the IC50 at VEGFR2 was determined as 43.9 nM; on RET it was 0.98 nM. The compound also showed a GI50 on Ba/F3-KIF5B-RET cell of 11.6 nM.
In the same order, the values of `C[C@@H](c1ccc(-n2cc(F)cn2)nc1)N(C)c1ccc(-c2cc(OCC(C)(C)O)cn3ncc(C#N)c23)cn1` [Compound 61, (S)-4-(6-((1-(6-(4-fluoro-1H-pyrazol-1-yl)pyridin-3-yl)ethyl)(methyl)amino)pyridine-3-yl)-6-(2-hydroxy-2-methylpropoxy)pyrazolo[1,5-a]pyridine-3-carbonitrile] are 25.5 nM, 0.48 nM and 1.53 nM.
On to `C[C@@H](c1ccc(N2CCCC2)nc1)N(C)c1ccc(-c2cc(OCC(C)(C)O)cn3ncc(C#N)c23)cn1` [Compound 62], for which the IC50 at VEGFR2 came out at 176 nM; at RET it was 1.85 nM. On Ba/F3-KIF5B-RET cell, halving of growth (GI50) required 1030 nM.
With `CN(C(=O)c1ccc(N2CCCC2)nc1)c1ccc(-c2cc(OCC(C)(C)O)cn3ncc(C#N)c23)cn1` [Compound 64], the IC50 is 2480 nM on VEGFR2 and more than 500 nM on RET. On Ba/F3-KIF5B-RET cell, halving of growth (GI50) required 1120 nM.

These data come from patent US12552785B2, “Pyrazolo[1,5-α]pyridine derivative, preparation method therefor, and composition and use thereof” (SHENZHEN ZHONGGE BIOLOGICAL TECHNOLOGY CO., LTD., priority 2020, dated 2026).
